1 compound from patent US9121026B2 (priority 2004, dated 2015) can be followed below.

Structures are written as SMILES. “Also recorded” adds a separate entry of the source.

For orientation: Inhibition of growth means the share of the control response that was lost under treatment. Low readings indicate a response near the control, high ones a response far below the control.

What all share (type): cell-based, Saccharomyces cerevisiae
Experiment [1] concerns RE700A e PCDR2-HXT7 (ET[CDR2]). Briefly: Growth inhibition of ET[CDR2] by 2-DG. The conditions noted are these: liquid media, 20 h 28° C., compared to growth in the absence of 2-DG. The protocol: FIG. 6: Growth inhibition of RE700A, ET[CDR1] and ET[CDR2] in the presence of increasing 2-DG concentrations after 20 h incubation at 28° C. for in liquid medium. RE700A, ET[CDR1] and ET[CDR2] were incubated 20 h at 28° C. with maltose (2% (w/v)) as the sole carbon source in the presence of increasing 2-DG concentrations in liquid medium. The optical density was measured at 600 nm semi-continuously every 15 minutes and the integral under the growth curve was calculated. Inhibition of growth is shown in percent compared to growth in the absence of 2-DG. Growth of ET[CDR1] was inhibited by 92% at a 2-DG concentration in liquid media of 0.05% (w/v), by 94% at a 2-DG concentration in liquid media of 0.075% (w/v), by 93% at a 2-DG concentration in liquid media of 0.1% (w/v) and by 95% at a 2-DG concentration of 0.2% (w/v). Growth of ET[CDR2] was inhibited by 50% at a 2-DG concentration in liquid media of 0.05% (w/v), by 70% at a 2-DG concentration in liquid media of 0.075% (w/v), by 70% at a 2-DG concentration in liquid media of 0.1% (w/v) and by 84% at a 2-DG concentration of 0.2% (w/v).
(2) Episomal screening system for inhibitors of PCDR2: S. cerevisiae strain RE700A was transformed with plasmids pY-PCDR2-HXT7 and pY-PCDR2-GFP yielding strains ET[CDR2] and CQ[CDR2] (for details see construction of strains and plasmids, for the complete genotype refer to Table 1). The inhibition of growth of ET[CDR2] by 2-DG was tested. The growth of this strain was inhibited to more than 80% at a 2-DG concentration of 0.2% (w/v) (FIG. 6). To screen for inhibitors of the PCDR2, the test strain ET[CDR2] can be incubated in selective YNB medium with 2% (w/v) maltose as the carbon source and 0.2% (w/v) 2-DG. Under these non-permissive conditions the growth of the test strain ET[CDR2] was inhibited when PCDR2 was active (FIG. 6).

Experiment [2] deals with RE700A e PPDR5-HXT7 (ET[PDR]). Briefly: Growth inhibition of ET[PDR] by 2-DG. To be noted: 20 h 28° C., maltose, in percent of growth of RE700A. As for the experimental part: (A) RE700A, ECFP and ET[PDR] were incubated 20 h at 28° C. with maltose (2% (w/v)) as the sole carbon source in the presence of the indicated 2-DG concentrations. The optical density was measured at 600 nm every 15 minutes and the integral under the growth curve was calculated. Inhibition of growth of ECFP and ET[PDR] is shown in percent of growth of RE700A. Growth of ECFP was inhibited by 39% at 0.005% (w/v) 2-DG, by 78% at 0.01% (w/v) 2-DG, by 91% at 0.03% (w/v) 2-DG and by 93% at 0.05% (w/v) 2-DG. Growth of ET[PDR] was inhibited by 52% at 0.005% (w/v) 2-DG, by 87% at 0.01% (w/v) 2-DG, by 94% at 0.03% (w/v) 2-DG and by 96% at 0.05% (w/v) 2-DG.
Strain growth: The growth of the strains in liquid medium was determined by measuring the optical density at 600 nm. To obtain growth curves, measurements were performed every 15 min. Alternatively, start and endpoint (after 12-16 h) measurements were carried out.

Experiment [3] has as its system RE700A Δpdr1,pdr3 tok1::PPDR5-HXT7. Put plainly: Growth inhibition of RE700A Δpdr1,pdr3 tok1::PPDR5-HXT7 by 2-DG. To be noted: RE700A Δpdr1,pdr3 tok1::PPDR5-HXT7, up to a 2-DG concentration of 0.03% (w/v). As for the experimental part: (A) Growth inhibition of RE700A i PPDR5-HXT7 (IT[PDR]), RE700A Δpdr1 tok1::PPDR5-HXT7, RE700A Δpdr3 tok1::PPDR5-HXT7 and RE700A Δpdr1,pdr3 tok1::PPDR5-HXT7 at increasing 2-DG concentrations. RE700A i PPDR5-HXT7 (IT[PDR]), RE700A Δpdr1 tok1::PPDR5-HXT7, RE700A Δpdr3 tok1::PPDR5-HXT7 and RE700A Δpdr1,pdr3 tok1::PPDR5-HXT7 were incubated 20 h at 28° C. with Maltose (2% (w/v)) as the sole carbon source and 2-DG concentrations as indicated. The optical density was measured at 600 nm every 15 minutes and the integral under the growth curve was calculated. Inhibition of growth caused by 2-DG is shown in percent. The growth of the strain RE700A tok1::PPDR5-HXT7 (IT[PDR]) was inhibited by 50% at 0.02% (w/v) 2-DG. Growth of the strains RE700A Δpdr1 tok1::PPDR5-HXT7 and RE700A Δpdr3 tok1::PPDR5-HXT7 was inhibited by 50% at 0.026% (w/v) 2-DG.
All strains expressing HXT7 were tested for sensitivity to 2-DG. The strains expressing GFP under the control of PPDR5 were additionally analysed for GFP fluorescence in comparison to RE700Ae PPDR5-GFP (strain CQ[PDR]).

For the compound `O=CC[C@@H](O)[C@H](O)[C@H](O)CO` [2-DG, 2-deoxy-glucose], the Inhibition of growth in experiment [1] (0.05% (w/v) 2-DG) is on record as 50%; in experiment [1] (0.075% (w/v) 2-DG), 70%; in experiment [1] (0.1% (w/v) 2-DG), 70%; in experiment [2] (0.005% (w/v) 2-DG), 52%; in experiment [2] (0.01% (w/v) 2-DG) it was 87%; in experiment [2] (0.03% (w/v) 2-DG) it was 94%. Further, the Inhibition of growth in experiment [2] (0.05% (w/v) 2-DG) was 96%. Also, in experiment [3], the “Growth inhibition / 2-DG sensitivity” value is “did not show significant 2-DG sensitivity; also recorded: not significantly inhibited”.
